ChEMBL document CHEMBL5223138, “Lead identification of novel tetrahydroimidazo[1,2-a]pyridine-5-carboxylic acid derivative as a potent heparanase-1 inhibitor” (Bioorg Med Chem Lett, 2023)

Tests used:
[1] = target: T1, Heparanase (Homo sapiens, UniProt Q9Y251); assay: Inhibition of Heparanase-1 (unknown origin) by HTRF method
T1 sequence (Q9Y251 whole entry): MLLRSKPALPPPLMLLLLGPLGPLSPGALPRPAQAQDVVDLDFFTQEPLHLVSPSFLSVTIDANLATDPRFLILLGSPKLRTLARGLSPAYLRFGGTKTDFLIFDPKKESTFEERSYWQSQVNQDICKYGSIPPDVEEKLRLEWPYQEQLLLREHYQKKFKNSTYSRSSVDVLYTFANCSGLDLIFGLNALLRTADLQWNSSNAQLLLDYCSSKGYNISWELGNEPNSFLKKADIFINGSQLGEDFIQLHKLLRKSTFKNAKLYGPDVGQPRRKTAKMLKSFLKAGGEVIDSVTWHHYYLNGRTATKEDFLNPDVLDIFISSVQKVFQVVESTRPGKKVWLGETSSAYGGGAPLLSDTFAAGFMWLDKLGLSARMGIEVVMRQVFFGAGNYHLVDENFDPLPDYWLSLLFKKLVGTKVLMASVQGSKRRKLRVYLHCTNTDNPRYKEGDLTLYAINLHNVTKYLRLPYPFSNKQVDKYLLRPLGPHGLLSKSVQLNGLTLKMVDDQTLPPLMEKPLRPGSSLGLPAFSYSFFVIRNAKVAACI

[2] = Binding affinity to bovine liver beta-glucuronidase; design: species or system Bos taurus

IC50 [1] [µM] | Ki [2] [µM] | SMILES
9.19 |  | CCCCCCCCCCCCCCCc1cc(O[C@@H]2O[C@H](C(=O)O)[C@@H](O)[C@H](O)[C@H]2O)cc(O)c1C(=O)Oc1cc(C)c(C(=O)O)c(O)c1
 | 0.012 | O=C(O)[C@@H]1[C@@H](O)[C@H](O)[C@@H](O)c2nccn21
3.41 |  | O=C(O)[C@@H]1[C@@H](O)[C@H](O)[C@@H](O)c2nc(CCc3ccc(C(F)(F)F)cc3)cn21
